“And” between values parts separate entries of the source, which are not always exact repeats. Equal values may be shown once.
How the values were obtained:
Human T-47D breast cells [1] = assay: T-47D cell proliferation, agonist format; format: cell-based; settings: T47D, 0.01 to 10 nM, maximum at any dose, read-out: Cell Proliferation Agonist maximum % Stim.
Method: (§1) Human T-47D breast cells grown in nutrient media were incubated with the standard progestin R5020 alone or with R5020 plus test compound and then assessed by standard procedures for proliferation using incorporation of [^3 H]-thymidine as the measurement. […] The maximum % inhibition (a measure of the efficacy of the compounds) is also given. In the agonist format of this assay the compounds were tested at concentrations ranging from 0.01 to 10 nM and the maximum % stimulation at any dose is listed in Table 2. […] However, the presence of a very polar hydroxyl group in the 17α-position greatly diminishes antiprogestational activity and this holds even when the OH is separated from the 17-carbon atom by a methylene group.

Human T-47D breast cells [2] = assay: T-47D cell proliferation, antagonist format (inhibition of 0.15 nM R5020-mediated proliferation); format: cell-based; settings: T47D; for EC50: inhibition of 0.15 nM R5020-mediated proliferation, N.D. not detected; for Emax: maximum % inhibition, 0.15 nM R5020, read-out: Cell Proliferation Antagonist maximum % Inhib.
Method: as §1

progestin receptor (hPR) = assay: progestin receptor binding; settings: cytosol from human T-47D breast cells; [3H]-R5020; read-out: Receptor Binding Affinity hPR IC50
Source text: However, the receptors were of human origin and a different radioligand was used. Thus, for progestin receptor binding the receptor was obtained in cytosol from human T-47D breast cells and [^3 H]-R5020 was used as the radioligand. Data are expressed as IC50 values, i.e., the concentration of compound that inhibits the radioligand binding by 50%.

rabbits [3] = assay: McGinty test (agonist, test compound alone); format: in vivo, rabbit
Method: (§2) Progestational activity and antiprogestational activity were determined in rabbits by means of the McGinty test (test compound alone, procedure of McGinty et al., Endocrinology, 24:829-832 (1939)) or anti-McGinty test (test compound plus progesterone, procedure of Tamara et al., Jpn. J. Fertil. Steril. 24:48-81 (1979)). Results were scored according to McPhail (McPhail, J. Physiol., 83:146 (1934)).

rabbits [4] = assay: anti-McGinty test (antagonist, test compound plus progesterone); format: in vivo, rabbit
Method: as §2

SMILES	Emax (Human T-47D breast cells [1]) [%]	EC50 (Human T-47D breast cells [2]) [nM]	Emax (Human T-47D breast cells [2]) [%]	IC50 (progestin receptor (hPR)) [nM]	McPhail Index, McGinty Assay (Agonist) (rabbits [3]; dose 0.3 micrograms)	McPhail Index, McGinty Assay (Agonist) (rabbits [3]; dose 3 micrograms)	McPhail Index, McGinty Assay (Agonist) (rabbits [3]; dose 30 micrograms)	McPhail Index, McGinty Assay (Agonist), progesterone (rabbits [3]; progesterone control, printed under first dose column, own dose not stated)	McPhail Index, McGinty Assay (Antagonist), progesterone (Standard) (rabbits [4]; progesterone standard, printed under first dose column, own dose not stated)	McPhail Index, McGinty Assay (Antagonist) (rabbits [4]; dose 0.3 micrograms, plus progesterone)	McPhail Index, McGinty Assay (Antagonist) (rabbits [4]; dose 3 micrograms, plus progesterone)	McPhail Index, McGinty Assay (Antagonist) (rabbits [4]; dose 30 micrograms, plus progesterone)	McPhail Index, McGinty Assay (Antagonist) (rabbits [4]; rabbit, in vivo)	progestational activity, McGinty test (rabbits [3]; in words)	antiprogestational activity, anti-McGinty test (rabbits [4]; in words)
CC(=O)[C@@]1(OC(=O)c2ccccc2)CC[C@H]2[C@@H]3CCC4=CC(=O)CCC4=C3[C@@H](c3ccc(N(C)C)cc3)C[C@@]21C [I 4-Me2 N H O H --O--CO--C6 H5 H, 11β-[4-(N,N-Dimethylamino)phenyl]-17α-benzoyloxy-19-norpregna-4,9-diene-3,20-dione]	18	6.4	69	24	0 +/- 0	0 +/- 0	0 +/- 0	–	–	–	–	–	–	–	–
CC[C@]1(C(C)=O)CC[C@H]2[C@@H]3CCC4=CC(=O)CCC4=C3[C@@H](c3ccc(N(C)C)cc3)C[C@@]21C [I 4-Me2 N H O H C2 H5 H, 11β-[4-(N,N-dimethylamino)phenyl]-17α-ethyl-19-norpregna-4,9-diene-3,20-dione]	8	0.3	110	0.6	0.2 +/- 0.1	0.3 +/- 0.2	0.3 +/- 0.26	–	–	–	–	–	–	–	–
CC(=O)[C@H]1CC[C@H]2[C@@H]3CCC4=CC(=O)CC[C@]4(C)[C@H]3CC[C@]12C [Progesterone, reference compound]	–	–	–	3.3	–	–	–	2.45 +/- 0.14	2.45 +/- 0.14	–	–	–	–	–	–
CC(=O)[C@@]1(O)CC[C@H]2[C@@H]3CCC4=CC(=O)CCC4=C3[C@@H](c3ccc(N(C)C)cc3)C[C@@]21C [I 4-Me2 N H O H --OH H]	4	–	29	26	0 +/- 0	0 +/- 0	0 +/- 0	–	–	2.8 +/- 0	2.4 +/- 0.4	2.1 +/- 0.4	–	–	–
C#C[C@]1(C(C)=O)CC[C@H]2[C@@H]3CCC4=CC(=O)CCC4=C3[C@@H](c3ccc(N(C)C)cc3)C[C@@]21C [I 4-Me2 N H O H --CCH H, 11β-(4-(N,N-Dimethylamino)phenyl)-17α-ethynyl-19-norpregna-4,9-diene-3,20-dione]	12	0.4	101	2.5	0.1 +/- 0.1	0.2 +/- 0.2	0.2 +/- 0.2	–	–	–	–	–	–	–	–
COC(=O)[C@]1(C(C)=O)CC[C@H]2[C@@H]3CCC4=CC(=O)CCC4=C3[C@@H](c3ccc(N(C)C)cc3)C[C@@]21C [I 4-Me2 N H O H COOCH3 H, 17α-carbomethoxy-11β-(4-(N,N-dimethylamino)phenyl)-19-norpregna-4,9-diene-3,20-dione]	24	0.4	92	0.7	0 +/- 0	0 +/- 0	0.07 +/- 0.07	–	–	–	–	–	–	–	–
CCC(=O)O[C@]1(C(C)=O)CC[C@H]2[C@@H]3CCC4=CC(=O)CCC4=C3[C@@H](c3ccc(N4CCCC4)cc3)C[C@@]21C [17α-Propionyloxy-11β-[4-(N-pyrrolidino)phenyl-19-norpregna-4,9-diene-3-20-dione]	-1	0.9	107	4.8	0 +/- 0	0 +/- 0	0.1 +/- 0.1	–	–	–	–	–	–	–	–
CC(=O)[C@@]1(OC(=O)Cc2ccccc2)CC[C@H]2[C@@H]3CCC4=CC(=O)CCC4=C3[C@@H](c3ccc(N(C)C)cc3)C[C@@]21C [I 4-Me2 N H O H O--CO--CH2 C6 H5 H, 11β-[4-(N,N-Dimethylamino)phenyl]-17α-phenylacetoxy-19-norpregna-4,9-diene-3,20-dione]	16	1.9	99	7.9	–	–	–	–	–	–	–	–	–	–	–
CC(=O)[C@@]1(CO)CC[C@H]2[C@@H]3CCC4=CC(=O)CCC4=C3[C@@H](c3ccc(N(C)C)cc3)C[C@@]21C [I 4-Me2 N H O H --CH2 --OH H, 11β-(4-(N,N-dimethylamino)phenyl)-17α-hydroxymethyl-19-norpregna-4,9-diene-3,20-dione]	11	–	23	43.6	0 +/- 0	0 +/- 0	0 +/- 0	–	–	–	–	–	2.9 +/- 0.5 and 2.8 +/- 0.2 and 2.7 +/- 0.2	–	–
COC[C@]1(C(C)=O)CC[C@H]2[C@@H]3CCC4=CC(=O)CCC4=C3[C@@H](c3ccc(N(C)C)cc3)C[C@@]21C [I 4-Me2 N H O H --CH2 OCH3 H, 11β-(4-(N,N-dimethylamino)phenyl)-17α-methoxymethyl-19-norpregna-4,9-diene-3,20-dione]	12	0.3	106	3.2	1.3 +/- 0.5	1.8 +/- 0.6	1.3 +/- 0.8	–	–	–	–	–	3.2 +/- 0.1 and 1.7 +/- 0.8 and 1.7 +/- 0.3	–	–
CCC(=O)O[C@]1(C(C)=O)CC[C@H]2[C@@H]3CCC4=CC(=O)CCC4=C3[C@@H](c3ccc(N4CCCCC4)cc3)C[C@@]21C [11β-(4-(N-piperidino)phenyl)-17α-propionyloxy-19-norpregna-4,9-diene-3,20-dione]	-16	1	111	2	0 +/- 0	0 +/- 0	0 +/- 0	–	–	–	–	–	–	–	–
COc1ccc([C@H]2C[C@@]3(C)[C@@H](CC[C@]3(OC(C)=O)C(C)=O)[C@@H]3CCC4=CC(=O)CCC4=C32)cc1 [I 4-CH3 O H O H --O--CO--CH3 H, 17α-Acetoxy-11β-(4-methoxyphenyl)-19-norpregna-4,9-diene-3,20-dione]	2	0.3	119	0.8	1.5 +/- 0.2	1.5 +/- 0.6	1.5 +/- 0.7	–	–	–	–	–	–	both agonist and antagonist properties	both agonist and antagonist properties
CC(=O)O[C@]1(C(C)=O)CC[C@H]2[C@@H]3CCC4=CC(=O)CCC4=C3[C@@H](c3ccc(N(C)C)c(F)c3)C[C@@]21C [I 4-Me2 N 3-F O H --O--CO--CH3 H, 17α-Acetoxy-11β-(4-N,N-Dimethylamino-3-fluorophenyl)-19-norpregna4,9-diene-3,20-dione]	30	0.7	101	2.2	2.5 +/- 0.2	3.0 +/- 0.3	3.6 +/- 0.1	–	–	–	–	–	3.6 +/- 0.1 and 3.3 +/- 0.3 and 2.8 +/- 0.3	–	–
CCC(=O)O[C@]1(C(C)=O)CC[C@H]2[C@@H]3CCC4=CC(=O)CCC4=C3[C@@H](c3ccc4c(ccn4C)c3)C[C@@]21C [11β-(1-Methylindol-5-yl)-17α-propionyloxy-19-norpregna-4,9-diene-3,20-dione]	7	2.4	107	2.3	0 +/- 0	0 +/- 0	0 +/- 0	–	–	–	–	–	–	–	–
CCC(=O)O[C@]1(C(C)=O)CC[C@H]2[C@@H]3CCC4=CC(=O)CCC4=C3[C@@H](c3ccc(N(C)C)cc3)C[C@@]21C [I 4-Me2 N H O H --O--CO--C2 H5 H, 11β-[4-(N,N-dimethylamino)phenyl]-17α-propionyloxy-19-norpregna-4,9-diene-3,10-dione]	4	0.4	110	1.3	0 +/- 0	0 +/- 0	0 +/- 0	–	–	–	–	–	–	–	–
CC(=O)O[C@]1(C(C)=O)CC[C@H]2[C@@H]3CCC4=CC(=O)CCC4=C3[C@@H](c3ccc4c(c3)CCN4C)C[C@@]21C [17α-Acetoxy-11β-(1-methyl-2,3-dihydroindol-5-yl)-19-norpregna-4,9-diene-3,20-dione]	6	1.5	103	2	0.6 +/- 0.1	0.2 +/- 0.1	0.2 +/- 0.1	–	–	–	–	–	–	–	–
CC(=O)O[C@]1(C(C)=O)CC[C@H]2[C@@H]3CCC4=CC(=O)CCC4=C3[C@@H](c3ccc(N(C)C)nc3)C[C@@]21C [17α-Acetoxy-11β-[2-(N,N-dimethylamino)pyrid-5-yl]-19-norpregna-4,9-diene-3,20-dione]	5	2.9	92	11	0 +/- 0	0 +/- 0	0 +/- 0	–	–	–	–	–	–	–	–

From patent US6020328A, “20-keto-11β-arylsteroids and their derivatives having agonist or antagonist hormonal properties” (Research Triangle Institute, priority 1998, dated 2000)
